According to patent US7456154B2 (priority 2001, dated 2008):
Values joined by “and” are separate entries in the source; they are usually repeats but may differ in a detail not shown here. Equal values may be shown once.

Tests used:
Type in all cases: in vivo, rat
EAMG rats [1] = test: Treadmill running time and clinical status of EAMG rats; conditions: for Treadmill Performance Time: individual EAMG rat; for Clinical score: individual rat
AChE-R mRNA = AChE-R mRNA in mandibular lymph nodes of Crl:CD rats; conditions: 0.50 μg/g/day, 7 days; rEN101 oral or i.v., hEN101 i.v.; vs saline
Procedure: A study of the potential efficacy as well as toxicity of hEN101 was conducted on 4 week-old Crl:CD rats. To groups of 12 animals (6 males, 6 females) were administered 0.0 (saline only), 0.50 or 2.50 μg/g/day of hEN101 by oral gavage (o.g.), 0.50 μg/g/day of rEN101 by o.g., or 0.50 μg/g/day of rEN101 or hEN101 by i.v. injection. Additionally, there was a control group that was not injected. For 7 days the animals were checked for gross signs of toxicity: mortality, body weight, food consumption, ophtalmology, hematology (peripheral blood), and blood chemistry. At 7 days they were sacrificed and examined post mortem for macroscopic pathology and organ weight. Fixed sections of brain (cerebellum, cerebrum, midbrain, medulla), heart (auricular and ventricular regions), kidneys (cortex, medulla, papilla regions), liver (all main lobes), lungs (two major lobes, including bronchi), lymph nodes (mandibular and mesenteric), spinal cord (transverse and longitudinal sections at cervical, lumbar and thoracic levels), caecum, colon, duodenum, ileum, jejunum, esophagus, rectum, spleen and stomach (keratinized, glandular and antrum) were stained with hematoxylin/eosin to reveal necrosis or cell death.
Mandibular lymph nodes were examined for the effect of EN101 on AChE-R mRNA. […]

AChE-S = AChE-S expression in mandibular lymph nodes of Crl:CD rats; conditions: 0.50 μg/g/day, 7 days; rEN101 oral or i.v., hEN101 i.v.
AChE-R = test: Immunoblot densitometry of serum AChE-R in EAMG rats; conditions: 24 h after single i.v. injection of 250 μg/Kg
Procedure: Serum analyses: Blood samples drawn from EAMG rats and MG patients were subjected to non-denaturing gel electrophoresis as described [Kaufer et al. (1998) id ibid], as well as to catalytic activity measurements of AChE [Shapira et al. (2000) id ibid]. Iso-OMPA (tetraisopropylpyrophosphoramide, […]), was used to block butyrylcholinesterase activity in the serum samples. For activity staining on polyacrylamide gels [Kaufer et al. (1998) id ibid] we used 5-10−6 M iso-OMPA.
To evaluate the physiological outcome of this suppression, compound muscle action potentials (CMAPs) from the gastrocnemius muscle were recorded. […] The baseline decline, the percent difference in the heights of the fifth and the first evoked potentials, ranged from 10% to 36% (mean±SEM=13.0±2.5%, FIG. 9B, inset) as compared to 4.0±0.9% among healthy rats. The standard therapy for MG patients is administration of anti-cholinesterases, which elevate ACh levels to a threshold that enables receptor activation. Accordingly, neostigmine bromide (Prostigmine™, 75 μg/kg) was administered via i.p. This rapidly and effectively corrected the CMAP decline in EAMG rats, from 87.6% of the first evoked potential in untreated animals to […] of this level (i.e. 107.4%) of the first evoked potential). […]

EAMG rats [2] = test: Repeated daily treatment of EAMG rats (5 days and 1 month): survival, body weight, status
Text: As shown in Example 5, unlike anti-cholinesterases, rEN101 afforded long-term maintenance of stable CMAP. This further enabled the inventors to test whether the cholinergic imbalance contributes to the physiological deterioration that is characteristic of EAMG. Rats were first treated with rEN101 once a day for 5 days, CMAPs being determined prior to each treatment. Both the efficacy of rEN101 in retrieving normal CMAP and its capacity to reduce the inter-animal variability in CMAP values reached similar levels to those of pyridostigmine (FIGS. 11A and 11B). However, the onset of response to pyridostigmine was more rapid (Table 1), while that observed with rEN101 was longer-lasting. Daily oral or i.v administration of rEN101 stabilized CMAPs over the entire course of treatment (FIG. 11B). In contrast, the effect of pyridostigmine wore off within several hours, causing pronounced fluctuations in muscle status (Table 1 and FIG. 11). Among the animals treated daily with pyridostigmine, 5 out of 6 died within the 5 day experimental course. In contrast, 6 out of 8 animals treated once-a-day with rEN101 via o.g. survived the full 5 day period. This conspicuous difference might reflect the susceptibility of EAMG rats to repeated anesthesia and CMAP measurements. In order to avoid these additional stresses and evaluate the effect of the antisense treatment on EAMG pathophysiology, the inventors subjected groups of moderately sick animals to 1 month of daily oral treatment with minimal interference. […] One way repeated measures ANOVA yielded P<0.05 for all other measures (AS vs. other treatments at 4 weeks). The effect of rEN101 on clinical symptoms was also corroborated by body weight changes. Rats treated with saline and Mestinon treated groups lost 13.5 and 11 g/animal, respectively, whereas animals treated with rEN101 gained, on average, 13 g during the treatment period. Thus, daily rEN101 administration promoted long-term change in the course of EAMG in rats with moderate to severe symptoms, under the same conditions in which untreated or pyridostigmine-treated animals deteriorated.

Substance	Effect on muscle stamina in EAMG rats (EAMG rats [1]; 0.25 μg/g oral single dose)	Treadmill Performance Time (EAMG rats [1]; 5 h, 0.25 μg/g oral single dose)	Treadmill Performance Time (EAMG rats [1]; 24 h, 0.25 μg/g oral single dose)	Clinical score (EAMG rats [1]; 24 h, scale 0 to 5 (death), 0.25 μg/g oral single dose)	Treadmill Performance Time (EAMG rats [1]; 48 h, 0.25 μg/g oral single dose)	Clinical score (EAMG rats [1]; 48 h, scale 0 to 5 (death), 0.25 μg/g oral single dose)	Treadmill Performance Time (EAMG rats [1]; before (basal), 0.25 μg/g oral single dose)	Clinical score (EAMG rats [1]; before (basal), scale 0 (no weakness) to 5 (death))	AChE-R mRNA levels in mandibular lymph nodes (AChE-R mRNA)	Expression of AChE-S synaptic variant in mandibular lymph nodes (AChE-S)	Treadmill running time after treatment (EAMG rats [1]; EAMG disease grade 2, 250 μg/Kg i.v., 24 h)	Treadmill running time before treatment (EAMG rats [1]; EAMG disease grade 2, 25 m/min)	Treadmill running time after treatment (EAMG rats [1]; EAMG disease grade 3, 250 μg/Kg i.v., 24 h)	Treadmill running time before treatment (EAMG rats [1]; EAMG disease grade 3, 25 m/min)	Treadmill running time after treatment (EAMG rats [1]; EAMG disease grade 4, 250 μg/Kg i.v., 24 h)	Treadmill running time before treatment (EAMG rats [1]; EAMG disease grade 4, 25 m/min)	Serum AChE-R level (AChE-R)	Animals that survived the full 5 day period (EAMG rats [2]; EAMG rats treated once-a-day via o.g.)	Survival, clinical status and treadmill performance vs pyridostigmine- and saline-treated animals (EAMG rats [2]; EAMG rats, 1 month daily oral doses (50 μg/Kg))	Body weight gained during the treatment period, average (EAMG rats [2]; EAMG rats, 1 month daily oral treatment)
5′-CTGCCACGTTCTCCTGCACC-3′ [hEN101]	promoted muscle stamina	300 s and 120 s and 150 s and 70 s	345 s and 170 s and 380 s and 360 s and 30 s	(1) (3×) and (2) and |||| (3) and (3)	85 s and 290 s	2.5 and 2 and || (5)	210 s and 80 s and 180 s and 30 s and 110 s and 0 s	(2.5) (2×) and 3 and (3.5) and (3) and 3.5	inconsistent in depressing AChE-R mRNA levels	did not affect the expression										
5′-CTGCGATATTTTCTTGTACC-3′ (chemistry not given here) [rEN101]									inconsistent in depressing AChE-R mRNA levels	did not affect the expression	488 ± 58 s	247 ± 35 s	500 ± 193 s	179 ± 21 s	212 ± 59 s	32 ± 6 s	reducing its serum level	6 out of 8	significant improvement in survival, clinical status and treadmill performance	13 g
